# Measured values as given in patent US11491155B2, “Salt of a pyrimido[6,1-A]isoquinolin-4-one compound” (VERONA PHARMA PLC, priority 2015, dated 2022).
# Where a name gives a salt, the structure may show the parent alone.
# Assays:
# [1] = Solubility of RPL554 salts in saline solutions, water and aqueous buffer solutions at 25° C. (HPLC); format: physicochemical; conditions: 24 hours; for Solubility as RPL554 (mg/ml) in Water: deionised water
# Protocol: The behaviour of salts of RPL554 were examined under the following conditions: • Phosphate buffered to pH 3.5 in saline, 0.9% w/w at 25° C. • Acetate buffered to pH 4.5 in saline, 0.9% w/w at 25° C. • Citro-Phosphate buffered to pH 4.5 in saline, 0.9% w/w at 25° C. • Phosphate buffered to pH 6.5 in saline, 0.9% w/w at 25° C. • Saline, 0.7, 0.9 and 1.1% w/w at 25° C. • Deionised water at 25° C.
# RPL554 salts and RPL554, ca 50 mg, were suspended in the various aqueous media, 1 ml, with agitation at the specified temperatures for 24 hours. The solids were isolated and dried in vacuo at 45° C. The retained filtrates were examined by HPLC.
# Additional RPL554 methane sulfonate salt, ca 50 mg, was charged to the water mixtures at 25° C. and 37.5° C. in order to afford a suspension. In all other cases, suspensions were obtained.
# The solubility of the RPL554 was determined by HPLC using a single point calibration and is expressed as RPL554 and not as the salt and are detailed in Table 6 and Table 7 for the various conditions utilised.
# [2] = Intrinsic dissolution of compressed tablet, pH 7.0, 37° C. (Sirius inForm); format: physicochemical; conditions: for Mass of salt (μg) dissolved after 2 hours, Average / Mass of salt (μg) dissolved after 2 hours, Test 1 / Mass of salt (μg) dissolved after 2 hours, Test 2: pH 7.0, 0.15 M NaCl, 37° C.; for mass dissolved: before precipitation
# Protocol: The dissolution assay (pH-dependent sample dissolution) was investigated using the Sirius inForm.
# Dissolution of a compressed tablet of the compound was monitored in a pH 7.0 aqueous dissolution experiment (0.15 M NaCl) at 37° C. using UV-absorption spectroscopy in 2 hour experiments. A tablet with a diameter of 3 mm, requiring approximate weights of 10 mg was compressed under a weight of 100 kg load force. Only one face of the tablet was exposed to the dissolution medium, which contained a 0.01 M acetate/phosphate buffer system to minimise perturbation of the experimental pH from dissolution of the drug.
# Stirring of the solution was continuous and at a constant rate of 100 rpm. The absorption data was converted to absolute sample weights using previously determined, pH-dependent, molar extinction coefficients. An appropriate wavelength range was chosen to ensure that spectroscopic data with an absorption value of <1.3 was analysed, avoiding erroneous dissolution results due to saturation of the UV light source.
# [3] = Primary particle size analysis by laser light diffraction (Mastersizer 2000); format: physicochemical; conditions: micronised, mean n=3
# Protocol: A Mastersizer 2000 fitted with a Scirocco 2000 dry powder dispersion unit (Malvern Instruments Ltd, UK) was used to analyse the primary particle size of the micronised RPL554 and salt variants. The salts (50 mg) were automatically sampled via a vibrating feed control at a feeder rate of 60% and dispersed in compressed air at a pressure of 3 bar.
# [4] = Solubility of RPL554 and salts in pMDI propellant systems; format: physicochemical; conditions: for Estimated RPL554 solubilised (%) / Estimated Solubilised RPL554 μg per 50 μL actuation / Solubility RPL554: in HFA 134 with Ethanol/Tween
# Protocol: Quantitative assessment of the solubility of RPL554 and salt variants in the propellant systems of selected pMDI formulations (three replicates of each formulation) was performed. pMDIs were directly coupled to an adaptor fitted with a 0.20 μm filter unit connected, in series to a 21 G needle, which was inserted via a rubber septum, into a cooled multi-dose glass vial. A 19 G filter needle was inserted through the septum to aid evaporation of propellant from the vial. Prior to the filtration process the vial was cooled in a mixture of dry ice and acetone to ensure that the pressure within the vial was reduced in order to facilitate collection of the output from the pMDI. Ten consecutive actuations of the pMDI were fired through the filter and collected in the vial. Between actuations the canister was shaken for approximately 10 seconds. The pMDI unit was weighed before and after the filtering procedure. The filtrate was stored at room temperature and allowed to evaporate to dryness.
# Samples were recovered by carefully rinsing the inside of the vials with 1 mL of recovery solution before transfer to HPLC vials for analysis. The estimated % of RPL554 solubilised within the canister was calculated from the starting mass of RPL554 within the canisters, which in turn was calculated using the theoretical molecular weight values of the RPL554 free base and salt variants shown in Table 13. The theoretical molecular weight estimates of the salts were provided by Verona.
# [5] = RPL554 content and content uniformity of 1% w/w lactose powder blends; format: physicochemical; conditions: for Measured Blend Content (% Theoretical): 1% w/w RPL554 variant: lactose powder blend, expressed as RPL554 base; for **Adjusted RPL554 Content per capsule: per 20 mg capsule of 1% w/w lactose blend, adjusted for measured blend content (% theoretical), as RPL554 base
# Protocol: Batches (approximately 5 g) of 1% w/w RPL554 free base or salt variants: lactose blends were prepared. In brief, the RPL554 free base or salt plus a small quantity of lactose was passed through a 38 μm sieve. The sieved material plus the remaining lactose was mixed in a glass mortar prior to transfer to a stainless steel screw cap jar and further mixing (10 minutes at 46 rpm) conducted using a Turbula blender. The composition of the dry powder blend was 0.05 g API and 4.95 g lactose.
# In order to determine the content uniformity of the blends, aliquots (approx. 20 mg) of powder were sampled from each blend, accurately weighed, and diluted to volume in 10 mL volumetric flasks with diluent. The flasks were sonicated for 3 minutes before samples were transferred to HPLC vials for analysis.
# [6] = Aerosol performance of DPI formulations (Cyclohaler, NGI); format: physicochemical; conditions: for †Measured Mass of 1% w/w Blend Delivered per capsule / ††RPL554 Emitted (μg) per capsule (B): Cyclohaler; for †Measured Mass of 1% w/w Blend Delivered per capsule: 5 capsules containing 20 mg powder blend, mass from weight change of capsule-loaded device; for ††RPL554 Emitted (μg) per capsule (B): NGI, mass determined from HPLC analysis of recovered samples; for ††RPL554 Emitted (μg) per capsule (B) / Calculated RPL554 Content (μg) per capsule (A): as RPL554 base; for Calculated RPL554 Content (μg) per capsule (A): calculated from delivered blend mass and measured blend content
# Protocol: Capsules were hand filled with 20 mg of the 1% w/w RPL554 free base or salt variants: lactose blends, i.e. 200 μg salt per capsule, the fill weight of each capsule was recorded. Due to differences in the molecular weights of the RPL554 salt forms, the amount of RPL554 emitted per actuation varied as a function of molecular weight. The formulations were prepared with no adjustment for differences in molecular weight of the salts.
# The powders were delivered via the Cyclohaler® DPI (PCH Pharmachemie, BV, The Netherlands). The Cyclohaler® DPI is a low resistance device and was operated at a flow rate of 90 L/min for 2.7 seconds. The cut off diameters for the NGI collection stages were calculated for the 90 L/min flow rate using the NGI User Guide (MSP Corporation, 2008).
# The ED, FPD and FPF were determined from inertial impaction tests performed following the deposition of 5 capsules of each formulation into the NGI. For each capsule tested the combined weight of the Cyclohaler® and capsule was determined before and after operation to check that the dose had been delivered. The NGI was fitted with a pre-separator for these determinations. The central cup of the pre-separator was filled with 15 mL of diluent. Following deposition, the solution was recovered in a 20 mL volumetric flask and made up to volume with diluent. RPL554 was quantitatively recovered from the device, induction port and each of the NGI collection stages with 10 mL of diluent.
# The volume of diluent used for each sample was selected to ensure RPL554 concentrations were above the limit of quantitation.
# [7] = Physico-chemical characteristics of salt candidates: solubility in water, pH of aqueous suspension/solution, form post water maturation
# Protocol: The physico-chemical characteristics of the salt candidates were determined.
# [8] = listed as hydrobromide salt, hydrobromide
# [9] = listed as methanesulfonate salt
smiles,measurement,setting,value
"COc1cc2c(cc1OC)-c1c/c(=N\c3c(C)cc(C)cc3C)n(CCNC(N)=O)c(=O)n1CC2 [Hydrobromide, RPL554 hydrobromide]",Solubility as RPL554 (mg/ml) in 0.7 w/w % Saline,[1]; hydrobromide,0.95 mg/mL
same,Solubility as RPL554 (mg/ml) in 0.9 w/w % Saline,[1]; hydrobromide,0.82 mg/mL
same,Solubility as RPL554 (mg/ml) in 1.1 w/w % Saline,[1]; hydrobromide,0.66 mg/mL
same,Solubility as RPL554 (mg/ml) in Water,[1]; hydrobromide,3.43 mg/mL
same,"Mass of salt (μg) dissolved after 2 hours, Average",[2]; [8],35.3 µg
same,"Mass of salt (μg) dissolved after 2 hours, Test 1",[2]; [8],30.4 µg
same,"Mass of salt (μg) dissolved after 2 hours, Test 2",[2]; [8],40.1 µg
same,D (0.1) (μm),[3]; hydrobromide,0.64 μm
same,D (0.5) (μm),[3]; hydrobromide,1.52 μm
same,D (0.9) (μm),[3]; hydrobromide,3.23 μm
same,Solubility RPL554 (μg/g),"[4]; in HFA 134, BLQ = below limit of quantitation (0.06 μg/mL), hydrobromide",BLQ
same,Calculated RPL554 solubilised (%),"[4]; in HFA 134, hydrobromide",BLQ
same,Calculated Solubilised RPL554 μg per 50 μL actuation,"[4]; in HFA 134, hydrobromide",BLQ
same,Estimated RPL554 solubilised (%),[4]; hydrobromide,3.74%
same,Estimated Solubilised RPL554 μg per 50 μL actuation,[4]; hydrobromide,6.40 µg
same,Solubility RPL554,[4]; hydrobromide,96.27 µg/g
same,Measured Blend Content (% Theoretical),[5]; hydrobromide,83.37 % Theoretical
same,**Adjusted RPL554 Content per capsule,[5]; hydrobromide,142.58 µg
same,†Measured Mass of 1% w/w Blend Delivered per capsule,[6]; hydrobromide,19.96 mg
same,††RPL554 Emitted (μg) per capsule (B),[6]; hydrobromide,104.28 µg
same,Calculated RPL554 Content (μg) per capsule (A),[6]; hydrobromide,142.29 µg
same,pH of aqueous suspension/solution,"[7]; listed as HBr, hydrobromide",3.20
"COc1cc2c(cc1OC)-c1c/c(=N\c3c(C)cc(C)cc3C)n(CCNC(N)=O)c(=O)n1CC2 [Methanesulfonate, RPL554 methanesulfonate]",Solubility as RPL554 (mg/ml) in 0.7 w/w % Saline,[1],5.01 mg/mL
same,Solubility as RPL554 (mg/ml) in 0.9 w/w % Saline,[1],3.73 mg/mL
same,Solubility as RPL554 (mg/ml) in 1.1 w/w % Saline,[1],2.52 mg/mL
same,Solubility as RPL554 (mg/ml) in Water,[1],44.52 mg/mL
same,dissolution compared with free base / other salts,[2]; 2 hour experiments,higher dissolution than the rest of the salts
same,mass dissolved,[2]; at 8.5 min,3960 µg
same,mass dissolved,[2]; at 11 min,5200 µg
same,maximum pH change (decrease) during dissolution,[2]; nominal start pH 7,about 0.1 pH units
same,"Mass of salt (μg) dissolved after 2 hours, Average",[2]; [9],225 µg
same,"Mass of salt (μg) dissolved after 2 hours, Test 1",[2]; [9],160 µg
same,"Mass of salt (μg) dissolved after 2 hours, Test 2",[2]; [9],290 µg
same,D (0.1) (μm),[3],0.45 μm
same,D (0.5) (μm),[3],1.20 μm
same,D (0.9) (μm),[3],3.46 μm
same,Calculated RPL554 solubilised (%),[4]; in HFA 134,BLQ
same,Calculated Solubilised RPL554 μg per 50 μL actuation,[4]; in HFA 134,BLQ
same,Solubility RPL554 (μg/g),"[4]; in HFA 134, BLQ = below limit of quantitation (0.06 μg/mL)",BLQ
same,Estimated RPL554 solubilised (%),[4],11.64%
same,Estimated Solubilised RPL554 μg per 50 μL actuation,[4],19.38 µg
same,Solubility RPL554,[4],298.07 µg/g
same,Solubility RPL554,[4]; listed as methanesulfonate,298 µg/g
same,Calculated RPL554 solubilised (%),[4]; in HFA 227,BLQ
same,Calculated Solubilised RPL554 μg per 50 μL actuation,[4]; in HFA 227,BLQ
same,Solubility RPL554 (μg/g),[4]; in HFA 227,BLQ
same,Measured Blend Content (% Theoretical),[5],99.13 % Theoretical
same,**Adjusted RPL554 Content per capsule,[5],165.05 µg
same,†Measured Mass of 1% w/w Blend Delivered per capsule,[6],19.96 mg
same,††RPL554 Emitted (μg) per capsule (B),[6],118.69 µg
same,Calculated RPL554 Content (μg) per capsule (A),[6],164.72 µg
same,pH of aqueous suspension/solution,[7]; listed as Methane sulfonic,2.69
